Results from ChEMBL document CHEMBL5380795, “Design, Synthesis, and Bioactivity Investigation of Cyclic Lipopeptide Antibiotics Containing Eight to Nine Amino Acids” (J Med Chem, 2023).
Converted amounts (≈) assume the structure as drawn.

Legend:
Escherichia coli [1] = test: Antibacterial activity against Escherichia coli clinical isolate 19-2 assessed as inhibition of bacterial growth incubated for 18 to 24 hrs by broth microdilution method; type: functional; details: time 18-24 hrs
Klebsiella pneumoniae [2] = test: Antibacterial activity against carbapenem resistant Klebsiella pneumoniae clinical isolate 19-15 assessed as inhibition of bacterial growth incubated for 18 to 24 hrs by broth microdilution method; type: functional; details: time 18-24 hrs
Escherichia coli [3] = test: Antibacterial activity against Escherichia coli NCTC 13353 assessed as inhibition of bacterial growth incubated for 18 to 24 hrs by broth microdilution method; type: functional; details: time 18-24 hrs
[4] = test system: Staphylococcus epidermidis; test: Antibacterial activity against methicillin resistant Staphylococcus epidermidis clinical isolate 19-6 assessed as inhibition of bacterial growth incubated for 18 to 24 hrs by broth microdilution method; type: functional; details: time 18-24 hrs
Acinetobacter baumannii [5] = test: Antibacterial activity against oxacillinase-27 producing Acinetobacter baumannii NCTC 13304 assessed as inhibition of bacterial growth incubated for 18 to 24 hrs by broth microdilution method; type: functional; details: time 18-24 hrs
Escherichia coli [6] = test: Antibacterial activity against Escherichia coli ATCC BAA-2523 assessed as inhibition of bacterial growth incubated for 18 to 24 hrs by broth microdilution method; type: functional; details: time 18-24 hrs
[7] = test system: Staphylococcus epidermidis; test: Antibacterial activity against methicillin resistant Staphylococcus epidermidis clinical isolate 19-5 assessed as inhibition of bacterial growth incubated for 18 to 24 hrs by broth microdilution method; type: functional; details: time 18-24 hrs
Pseudomonas aeruginosa [8] = test: Antibacterial activity against Pseudomonas aeruginosa clinical isolate 19-1 assessed as inhibition of bacterial growth incubated for 18 to 24 hrs by broth microdilution method; type: functional; details: time 18-24 hrs
Pseudomonas aeruginosa [9] = test: Antibacterial activity against carbapenem resistant Pseudomonas aeruginosa clinical isolate 19-3 assessed as inhibition of bacterial growth incubated for 18 to 24 hrs by broth microdilution method; type: functional; details: time 18-24 hrs
[10] = Cytotoxicity against human HK-2 cells assessed as inhibition of cell growth incubated for 72 hrs by CCK-8 assay; type: toxicity, cell-based
Klebsiella pneumoniae [11] = test: Antibacterial activity against carbapenem resistant Klebsiella pneumoniae clinical isolate 19-17 assessed as inhibition of bacterial growth incubated for 18 to 24 hrs by broth microdilution method; type: functional; details: time 18-24 hrs
Acinetobacter baumannii [12] = test: Antibacterial activity against carbapenem resistant Acinetobacter baumannii clinical isolate 19-8 assessed as inhibition of bacterial growth incubated for 18 to 24 hrs by broth microdilution method; type: functional; details: time 18-24 hrs
[13] = Selectivity index, ratio of IC50 for cytotoxicity against human HK-2 cells to MIC for antibacterial activity against Escherichia coli ATCC BAA-2523; type: toxicity, cell-based
Pseudomonas aeruginosa [14] = test: Antibacterial activity against Pseudomonas aeruginosa ATCC 27853 assessed as inhibition of bacterial growth incubated for 18 to 24 hrs by broth microdilution method; type: functional; details: time 18-24 hrs
Pseudomonas aeruginosa [15] = test: Antibacterial activity against carbapenem resistant Pseudomonas aeruginosa clinical isolate 17-1 assessed as inhibition of bacterial growth incubated for 18 to 24 hrs by broth microdilution method; type: functional; details: time 18-24 hrs
Staphylococcus aureus [16] = test: Antibacterial activity against methicillin resistant Staphylococcus aureus ATCC 33591 assessed as inhibition of bacterial growth incubated for 18 to 24 hrs by broth microdilution method; type: functional; details: time 18-24 hrs
Staphylococcus aureus [17] = test: Antibacterial activity against Staphylococcus aureus ATCC 29213 assessed as inhibition of bacterial growth incubated for 18 to 24 hrs by broth microdilution method; type: functional; details: time 18-24 hrs
Escherichia coli [18] = test: Antibacterial activity against KPC producing Escherichia coli ATCC BAA-2340 assessed as inhibition of bacterial growth incubated for 18 to 24 hrs by broth microdilution method; type: functional; details: time 18-24 hrs
Klebsiella pneumoniae [19] = test: Antibacterial activity against KPC producing Klebsiella pneumoniae ATCC BAA-1705 assessed as inhibition of bacterial growth incubated for 18 to 24 hrs by broth microdilution method; type: functional; details: time 18-24 hrs

| Structure (SMILES) | MIC (Escherichia coli [1]) [µg/mL] | MIC (Klebsiella pneumoniae [2]) [µg/mL] | MIC (Escherichia coli [3]) [µg/mL] | MIC [4] [µg/mL] | MIC (Acinetobacter baumannii [5]) [µg/mL] | MIC (Escherichia coli [6]) [µg/mL] | MIC [7] [µg/mL] | MIC (Pseudomonas aeruginosa [8]) [µg/mL] | MIC (Pseudomonas aeruginosa [9]) [µg/mL] | IC50 at 72 h [10] [µg/mL] | MIC (Klebsiella pneumoniae [11]) [µg/mL] | MIC (Acinetobacter baumannii [12]) [µg/mL] | selectivity ratio [13] | MIC (Pseudomonas aeruginosa [14]) [µg/mL] | MIC (Pseudomonas aeruginosa [15]) [µg/mL] | MIC (Staphylococcus aureus [16]) [µg/mL] | MIC (Staphylococcus aureus [17]) [µg/mL] | MIC (Escherichia coli [18]) [µg/mL] | MIC (Klebsiella pneumoniae [19]) [µg/mL] |
| --- | --- | --- | --- | --- | --- | --- | --- | --- | --- | --- | --- | --- | --- | --- | --- | --- | --- | --- | --- |
| CCCCCCC[C@@H](O)CC(=O)N[C@@H](CCN)C(=O)N[C@H](CCN)C(=O)N[C@H]1CCNC(=O)[C@H](CC(C)C)NC(=O)[C@H](CCN)NC(=O)[C@H](CCN)NC(=O)[C@H](Cc2ccccc2)NC(=O)[C@@H](CC(C)C)NC(=O)[C@H](CCN)NC1=O | 16 (≈ 14 µM) | 32 (≈ 28 µM) | 32 (≈ 28 µM) | 4 (≈ 3.5 µM) | 16 (≈ 14 µM) | 8 (≈ 6.99 µM) | 1 (≈ 0.874 µM) | 2 (≈ 1.75 µM) | 4 (≈ 3.5 µM) | 18.5 (≈ 16.2 µM) | 64 (≈ 55.9 µM) | 16 (≈ 14 µM) | 2.3 | 2 (≈ 1.75 µM) | 2 (≈ 1.75 µM) | 16 (≈ 14 µM) | 8 (≈ 6.99 µM) | 16 (≈ 14 µM) | 32 (≈ 28 µM) |
| CCCCCCCCCC(=O)N[C@H](CCN)C(=O)N[C@H]1CCNC(=O)[C@H]([C@@H](C)O)NC(=O)[C@H](CCN)NC(=O)[C@H](CCN)NC(=O)[C@@H](CC(C)C)NC(=O)[C@@H](CC(C)C)NC(=O)[C@H](CCN)NC1=O | 64 (≈ 65.2 µM) | 64 (≈ 65.2 µM) | 64 (≈ 65.2 µM) | 32 (≈ 32.6 µM) | > 64 | 64 (≈ 65.2 µM) | 2 (≈ 2.04 µM) | 64 (≈ 65.2 µM) | 64 (≈ 65.2 µM) | 87.5 (≈ 89.1 µM) | > 64 | > 64 | 1.4 | 64 (≈ 65.2 µM) | 64 (≈ 65.2 µM) | > 64 | > 64 | 64 (≈ 65.2 µM) | > 64 |
| CCCCCCC[C@@H](O)CC(=O)N[C@H](CCN)C(=O)N[C@H]1CCNC(=O)[C@H]([C@@H](C)O)NC(=O)[C@H](CCN)NC(=O)[C@H](CCN)NC(=O)[C@H](CC(C)C)NC(=O)[C@@H](CC(C)C)NC(=O)[C@H](CCN)NC1=O | 8 (≈ 8.01 µM) | 16 (≈ 16 µM) | 16 (≈ 16 µM) | 64 (≈ 64.1 µM) | 64 (≈ 64.1 µM) | 4 (≈ 4.01 µM) | 16 (≈ 16 µM) | 0.5 (≈ 0.501 µM) | 1 (≈ 1 µM) | 206 (≈ 206 µM) | 8 (≈ 8.01 µM) | 64 (≈ 64.1 µM) | 51.5 | 0.5 (≈ 0.501 µM) | 0.5 (≈ 0.501 µM) | > 64 | > 64 | 8 (≈ 8.01 µM) | 2 (≈ 2 µM) |
| CCCCCCCCCC(=O)N[C@H](CCN)C(=O)N[C@H]1CCNC(=O)[C@H]([C@@H](C)O)NC(=O)[C@H](CCN)NC(=O)[C@H](CCN)NC(=O)[C@H](CC(C)C)NC(=O)[C@@H](Cc2ccc(Cl)c(Cl)c2)NC(=O)[C@H](CCN)NC1=O | 2 (≈ 1.84 µM) | 4 (≈ 3.69 µM) | 4 (≈ 3.69 µM) | 4 (≈ 3.69 µM) | 16 (≈ 14.7 µM) | 2 (≈ 1.84 µM) | 4 (≈ 3.69 µM) | 4 (≈ 3.69 µM) | 4 (≈ 3.69 µM) | 28.5 (≈ 26.3 µM) | 4 (≈ 3.69 µM) | 16 (≈ 14.7 µM) | 14.3 | 16 (≈ 14.7 µM) | 16 (≈ 14.7 µM) | 32 (≈ 29.5 µM) | 16 (≈ 14.7 µM) | 2 (≈ 1.84 µM) | 4 (≈ 3.69 µM) |
| CC(C)C[C@@H]1NC(=O)[C@@H](CC(C)C)NC(=O)[C@H](CCN)NC(=O)[C@@H](NC(=O)[C@@H](CCN)NC(=O)CCCCCC(C)(C)C)CCNC(=O)[C@H]([C@@H](C)O)NC(=O)[C@H](CCN)NC(=O)[C@H](CCN)NC1=O | 32 (≈ 32.6 µM) | 64 (≈ 65.2 µM) | 32 (≈ 32.6 µM) | > 64 | > 64 | 32 (≈ 32.6 µM) | 8 (≈ 8.14 µM) | 2 (≈ 2.04 µM) | 8 (≈ 8.14 µM) | 40.4 (≈ 41.1 µM) | > 64 | > 64 | 1.3 | 2 (≈ 2.04 µM) | 8 (≈ 8.14 µM) | > 64 | > 64 | 16 (≈ 16.3 µM) | 32 (≈ 32.6 µM) |
